Data published in patent US11033535B2, “Oxadiazoles and thiadiazoles as TGF-β inhibitors” (Southern Research Institute, priority 2017, dated 2021).
Like-named read-outs stand apart in the source and are kept apart here.

Test: Pharmacokinetic evaluation following a single oral and intravenous administration
Type: in vivo, CD1 mouse
Details: CD1, mouse, plasma; for C0 / AUC(0-inf) / AUC(0-t) / MRT inf / half-life / Vd: Table 10, IV Dose: 1 mg/kg
Description: A NMP stock solution was prepared by adding 1.136 mL of NMP to 5.68 mg of compound no. 42140 with vortexing and sonification, to obtain a solution with a concentration at 5 mg/mL of 42140:01. Next, to prepare an intravenous formulation, 0.100 mL of the 5 mg/mL stock solution was placed in a new vial. 0.100 mL of NMP and 0.400 mL of PEG400 were added with vortexing and sonification, followed by addition of 0.400 mL of saline with vortexing and sonification. […] 42140:01. Alternatively, to prepare an oral formulation, 0.200 mL of the 5 mg/mL stock solution was placed in a new vial. 0.400 mL of PEG400 was added with vortexing and sonification, followed by addition of 0.400 mL of saline with vortexing and sonifiction. […] 42140:01.
(§1) Briefly, the desired serial concentrations of working solutions were achieved by diluting a stock solution of the compound with 100% acetonitrile. 3 μL of working solutions (5, 10, 20, 50, 100, 500, 1000, 5000, 10000 ng/mL) were added to 30 μL of the blank CD1 mouse plasma to achieve calibration standards of 0.5-1000 ng/mL (0.5, 1, 2, 5, 10, 50, 100, 500, 1000 ng/mL) in a total volume of 33 μL. Five quality control samples at 1 ng/mL, 2 ng/mL, 5 ng/mL, 50 ng/mL and 800 ng/mL for plasma were prepared independently of those used for the calibration curves. These QC samples were prepared on the day of analysis in the same way as calibration standards.
Next, 33 μL standards, 33 μL QC samples, and 33 μL unknown samples (30 μL plasma with 3 μL blank solution) were added to 200 μL of acetonitrile containing IS mixture for precipitating protein, respectively. Then the samples were vortexed for 30 s. After centrifugation at 4 degree Celsius, 4000 rpm for 15 min, 3 μL of supernatant was injected into the LC/MS/MS system for quantitative analysis.
HPLC analysis was performed using 100% water with 0.1% formic acid (Solution A) and 100% acetonitrile with 0.1% formic acid (Solution B) with a flow rate of 0.6 mL/min.
A NMP stock solution was prepared by adding 2.092 mL of NMP to 10.46 mg of […] with vortexing and sonification, to obtain a solution with a concentration at 5 mg/mL of […]. Next, to prepare an intravenous formulation, 0.100 mL of the 5 mg/mL stock solution was placed in a new vial. 0.100 mL of NMP and 0.400 mL of PEG400 were added with vortexing and sonification, followed by addition of 0.400 mL of saline with vortexing and sonification. […] 42320:01. Alternatively, to prepare an oral formulation, 0.200 mL of the 5 mg/mL stock solution was placed in a new vial. 0.400 mL of PEG400 was added with vortexing and sonification, followed by addition of 0.400 mL of saline with vortexing and sonifiction. […] 42320:01.
as §1, with “50 ng/mL,” for “50 ng/mL”

[1] = iv, 1 mg/kg, Table 9, IV Dose: 1 mg/kg, Mouse 1, read-out: Concentration
[2] = iv, 1 mg/kg, Table 9, IV Dose: 1 mg/kg, Mouse 2, read-out: Concentration
[3] = iv, 1 mg/kg, Table 9, IV Dose: 1 mg/kg, Mouse 3, read-out: Concentration
[4] = iv, 1 mg/kg, Table 9, IV Dose: 1 mg/kg, mean, read-out: Concentration, Mean
[5] = po, 5 mg/kg, Table 11, PO Dose: 5 mg/kg, Mouse 4, read-out: Concentration
[6] = po, 5 mg/kg, Table 11, PO Dose: 5 mg/kg, Mouse 5, read-out: Concentration
[7] = po, 5 mg/kg, Table 11, PO Dose: 5 mg/kg, Mouse 6, read-out: Concentration
[8] = po, 5 mg/kg, Table 11, PO Dose: 5 mg/kg, mean, read-out: Concentration, Mean

CC(=O)N[C@@H](Cc1ccc(CN(C)C)cc1)c1nnc(-c2cccc(OC(F)(F)F)c2)s1 [Compound 42320, N-(2-(4-((dimethylamino)methyl)phenyl)-1-(5-(3-(trifluoromethoxy)phenyl)-1,3,4-thiadiazol-2-yl)ethyl)acetamide]
concentration at 5 min [1]: 86.9 ng/mL | concentration at 5 min [2]: 90.3 ng/mL | concentration at 5 min [3]: 85.7 ng/mL | concentration at 5 min [4]: 87.6 ng/mL | concentration at 0.25 h [1]: 68.4 ng/mL | concentration at 0.25 h [2]: 65 ng/mL | concentration at 0.25 h [3]: 68.3 ng/mL | concentration at 0.25 h [4]: 67.2 ng/mL | concentration at 0.5 h [1]: 68 ng/mL | concentration at 0.5 h [2]: 59.2 ng/mL | concentration at 0.5 h [3]: 52.7 ng/mL | concentration at 0.5 h [4]: 60 ng/mL | concentration at 1 h [1]: 41.2 ng/mL | concentration at 1 h [2]: 39.4 ng/mL | concentration at 1 h [3]: 47.1 ng/mL | concentration at 1 h [4]: 42.6 ng/mL | concentration at 2 h [1]: 26.5 ng/mL | concentration at 2 h [2]: 23.9 ng/mL | concentration at 2 h [3]: 25.9 ng/mL | concentration at 2 h [4]: 25.4 ng/mL | concentration at 4 h [1]: 11.9 ng/mL | concentration at 4 h [2]: 9.71 ng/mL | concentration at 4 h [3]: 13 ng/mL | concentration at 4 h [4]: 11.5 ng/mL | concentration at 8 h [1]: 4.08 ng/mL | concentration at 8 h [2]: 3.66 ng/mL | concentration at 8 h [3]: 5.31 ng/mL | concentration at 8 h [4]: 4.35 ng/mL | C0 (iv, 1 mg/kg, Mouse 1): 97.9 ng/mL | AUC(0-inf) (iv, 1 mg/kg, Mouse 1, read-out: AUCInf): 183 ng·h/mL | AUC(0-t) (iv, 1 mg/kg, Mouse 1, read-out: AUClast): 169 ng·h/mL | MRT inf (iv, 1 mg/kg, Mouse 1, read-out: MRTInf—obs): 2.66 h | half-life (iv, 1 mg/kg, Mouse 1, read-out: T1/2 (converted)): 2.27 h | Vd (iv, 1 mg/kg, Mouse 1, read-out: Vss—obs): 14.6 L/kg | C0 (iv, 1 mg/kg, Mouse 2): 106 ng/mL | AUC(0-inf) (iv, 1 mg/kg, Mouse 2, read-out: AUCInf): 165 ng·h/mL | AUC(0-t) (iv, 1 mg/kg, Mouse 2, read-out: AUClast): 153 ng·h/mL | MRT inf (iv, 1 mg/kg, Mouse 2, read-out: MRTInf—obs): 2.59 h | half-life (iv, 1 mg/kg, Mouse 2, read-out: T1/2 (converted)): 2.29 h | Vd (iv, 1 mg/kg, Mouse 2, read-out: Vss—obs): 15.7 L/kg | C0 (iv, 1 mg/kg, Mouse 3): 96 ng/mL | AUC(0-inf) (iv, 1 mg/kg, Mouse 3, read-out: AUCInf): 193 ng·h/mL | AUC(0-t) (iv, 1 mg/kg, Mouse 3, read-out: AUClast): 172 ng·h/mL | MRT inf (iv, 1 mg/kg, Mouse 3, read-out: MRTInf—obs): 3.17 h | half-life (iv, 1 mg/kg, Mouse 3, read-out: T1/2 (converted)): 2.68 h | Vd (iv, 1 mg/kg, Mouse 3, read-out: Vss—obs): 16.4 L/kg | AUC(0-inf) (iv, 1 mg/kg, mean, read-out: AUCInf, Mean): 180 ng·h/mL | AUC(0-t) (iv, 1 mg/kg, mean, read-out: AUClast, Mean): 165 ng·h/mL | MRT inf (iv, 1 mg/kg, mean, read-out: MRTInf—obs, Mean): 2.81 h | half-life (iv, 1 mg/kg, mean, read-out: T1/2, Mean (converted)): 2.41 h | Vd (iv, 1 mg/kg, mean, read-out: Vss—obs, Mean): 15.6 L/kg | concentration at 0.25 h [5]: 100 ng/mL | concentration at 0.25 h [6]: 71.4 ng/mL | concentration at 0.25 h [7]: 78.6 ng/mL | concentration at 0.25 h [8]: 83 ng/mL | concentration at 0.5 h [5]: 201 ng/mL | concentration at 0.5 h [6]: 121 ng/mL | concentration at 0.5 h [7]: 122 ng/mL | concentration at 0.5 h [8]: 148 ng/mL | concentration at 1 h [5]: 193 ng/mL | concentration at 1 h [6]: 119 ng/mL | concentration at 1 h [7]: 112 ng/mL | concentration at 1 h [8]: 141 ng/mL
